Measured values reported in patent US20260234136A1, “ISOXAZOLIDINES AS RIPK1 INHIBITORS AND USE THEREOF” (GENZYME CORPORATION, priority 2023, published 2026).
In brackets after ≈: the same amount, converted by molar mass.

Experiments:
[1] = physchem; conditions: 50 mM phosphate buffer, 25 °C, pH 7.4, aqueous buffer, thermodynamic from solid
[2] = test system: U937 cells; assay: Cellular assay in U937 cells to measure the activity of RIPK1-inhibitors on cell death (necroptosis); assay type: cell-based; conditions: Homo sapiens, U-937, 50 μM zVAD.fmk and 100 ng/ml recombinant human TNFα, overnight (18 to 24 hrs), MTS readout

`Cc1ccc([C@@H]2CCON2C(=O)C2CCN(c3cc(N4CCCC4=O)ncn3)CC2)cn1` [Example 82, 1-[6-[4-[(3S)-3-(6-methylpyridin-3-yl)-1,2-oxazolidine-2-carbonyl]piperidin-1-yl]pyrimidin-4-yl]pyrrolidin-2-one] gave a solubility at 16 h [1] of over 1150 µM and an IC50 [2] of 10 µM.
Work on `Cc1ccc([C@@H]2CCON2C(=O)C2CCN(c3ccnc(N4CCC(C)(C)C4=O)n3)CC2)cn1` [Example 84, 3,3-dimethyl-1-[4-[4-[(3S)-3-(6-methylpyridin-3-yl)-1,2-oxazolidine-2-carbonyl]piperidin-1-yl]pyrimidin-2-yl]pyrrolidin-2-one] yielded a solubility at 16 h [1] of over 1080 µM and an IC50 [2] of 8.13 µM.
Work on `Cc1ccc([C@@H]2CCON2C(=O)C2CCN(c3nccc(N4C(=O)CCC4(C)C)n3)CC2)cn1` [Example 88, 5,5-dimethyl-1-[2-[4-[(3S)-3-(6-methylpyridin-3-yl)-1,2-oxazolidine-2-carbonyl]piperidin-1-yl]pyrimidin-4-yl]pyrrolidin-2-one] yielded a solubility at 16 h [1] of over 1080 µM and an IC50 [2] of 1.36 µM.
Work on `O=C1OCCN1c1ccnc(N2CCC(C(=O)N3OCC[C@H]3c3cncc(F)c3)CC2)n1` [Example 91, 3-[2-[4-[(3S)-3-(5-fluoropyridin-3-yl)-1,2-oxazolidine-2-carbonyl]piperidin-1-yl]pyrimidin-4-yl]-1,3-oxazolidin-2-one] yielded a solubility at 16 h [1] of over 1130 µM and an IC50 [2] of 0.007 µM.
`CO[C@@H]1CCCN(c2ccnc(N3CCC(C(=O)N4OCC[C@H]4c4ccc(C)nc4)CC3)n2)C1=O` [Example 93, (3R)-3-methoxy-1-[2-[4-[(3S)-3-(6-methylpyridin-3-yl)-1,2-oxazolidine-2-carbonyl]piperidin-1-yl]pyrimidin-4-yl]piperidin-2-one] gave a solubility at 16 h [1] of over 1040 µM and an IC50 [2] of 0.436 µM.
`CO[C@H]1CCCN(c2ccnc(N3CCC(C(=O)N4OCC[C@H]4c4ccc(C)nc4)CC3)n2)C1=O` [Example 94, (3S)-3-methoxy-1-[2-[4-[(3S)-3-(6-methylpyridin-3-yl)-1,2-oxazolidine-2-carbonyl]piperidin-1-yl]pyrimidin-4-yl]piperidin-2-one] gave a solubility at 16 h [1] of over 1040 µM and an IC50 [2] of 0.216 µM.
Work on `Cc1nc([C@@H]2CCON2C(=O)C2CCN(c3nccc(N4CCCC4=O)n3)CC2)co1` [Example 95, 1-[2-[4-[(3S)-3-(2-methyl-1,3-oxazol-4-yl)-1,2-oxazolidine-2-carbonyl]piperidin-1-yl]pyrimidin-4-yl]pyrrolidin-2-one] yielded a solubility at 16 h [1] of over 1170 µM and an IC50 [2] of 0.026 µM.
`CO[C@@H]1CCCN(c2ccnc(N3CCC(C(=O)N4OCC[C@H]4c4cncc(F)c4)CC3)n2)C1=O` [Example 96, (3R)-1-[2-[4-[(3S)-3-(5-fluoropyridin-3-yl)-1,2-oxazolidine-2-carbonyl]piperidin-1-yl]pyrimidin-4-yl]-3-methoxypiperidin-2-one] showed a solubility at 16 h [1] of over 1030 µM and an IC50 [2] of 0.149 µM.
Work on `CO[C@H]1CCCN(c2ccnc(N3CCC(C(=O)N4OCC[C@H]4c4cncc(F)c4)CC3)n2)C1=O` [Example 97, (3S)-1-[2-[4-[(3S)-3-(5-fluoropyridin-3-yl)-1,2-oxazolidine-2-carbonyl]piperidin-1-yl]pyrimidin-4-yl]-3-methoxypiperidin-2-one] yielded a solubility at 16 h [1] of over 1030 µM and an IC50 [2] of 0.086 µM.
`O=C1CCCN1c1ccnc(N2CC[C@@H](C(=O)N3OCC[C@H]3c3cnccn3)C3(CC3)C2)n1` [Example 100, 1-[2-[(8R)-8-[(3S)-3-pyrazin-2-yl-1,2-oxazolidine-2-carbonyl]-5-azaspiro[2.5]octan-5-yl]pyrimidin-4-yl]pyrrolidin-2-one] showed a solubility at 16 h [1] of 269 µM (≈ 121 µg/mL) and an IC50 [2] of 0.012 µM.
For `Cc1ncc([C@@H]2CCON2C(=O)C2CCN(c3nccc(-c4cc(N)nn4C)n3)CC2)cc1F` [Example 102, [1-[4-(5-amino-2-methylpyrazol-3-yl)pyrimidin-2-yl]piperidin-4-yl]-[(3S)-3-(5-fluoro-6-methylpyridin-3-yl)-1,2-oxazolidin-2-yl]methanone], the solubility at 16 h [1] was over 1070 µM and the IC50 [2] was 0.001 µM.
`Cc1cncc([C@@H]2CCON2C(=O)C2CCN(c3ncc(F)c(N4CCC5(CC5)C4=O)n3)CC2)c1` [Example 103, 5-[5-fluoro-2-[4-[(3S)-3-(5-methylpyridin-3-yl)-1,2-oxazolidine-2-carbonyl]piperidin-1-yl]pyrimidin-4-yl]-5-azaspiro[2.4]heptan-4-one] showed a solubility at 16 h [1] of over 1040 µM and an IC50 [2] of 0.006 µM.
`O=C(C1CCN(c2ncc(F)c(N3CCC4(CC4)C3=O)n2)CC1)N1OCC[C@H]1c1cncc(F)c1` [Example 104, 5-[5-fluoro-2-[4-[(3S)-3-(5-fluoropyridin-3-yl)-1,2-oxazolidine-2-carbonyl]piperidin-1-yl]pyrimidin-4-yl]-5-azaspiro[2.4]heptan-4-one] showed a solubility at 16 h [1] of over 1030 µM and an IC50 [2] of 0.002 µM.
